The values that follow come from PubChem BioAssay (NCI).

Several values for one entry are separate records, joined by “and”; a condition that tells them apart may be missing. Equal values may be shown once.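 1) Cells in 96-well plates. 2) Compound, 48 h, 5 concentrations. 3) Linear interpolation between surrounding doses. 4) Unreached endpoint = highest concentration. GI50: concentration for 50% inhibition of growth. At the TGI there is no net growth.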 Where only a bound is given, the exact number is not on record here.

Assay in all cases: growth of human tumour cells (NCI), 48 h
Test [1] concerns A549 NSCLC.
The test system of test [2] is BT-549 breast.
The test system of test [3] is CCRF-CEM leukemia.
Test [4] concerns HCC-2998 colon.
In test [5] the test system is HCT-15 colon.
Test [6] relates to HOP-92 NSCLC.
Test [7] deals with HT29 colon.
Test [8] concerns LOX IMVI melanoma.
The test system of test [9] is MALME-3M melanoma.
For test [10], the system named is SK-MEL-5 melanoma.

For the compound `C=C1CC2(OC1=O)C(=O)N(CCCCCCCN1C(=O)C3(CC(=C)C(=O)O3)c3ccccc31)c1ccccc12` (stereo unspecified), the GI50 in [1] is 9.16 µM; in [2], 2.22 µM; in test [3], 0.896 µM; in test [4], 6.44 µM; in test [5], 1.3 µM; in test [6] it was 1.03 µM. The GI50 in test [7] was 1.49 µM; in [8], 0.763 µM; in test [9] it was 0.955 µM; in test [10] it was 7.11 µM. Further, the TGI in test [1] came to 24.8 µM; in test [2], 9.14 µM; in test [3] it was 6.42 µM; in test [4], 13.7 µM; in test [5] it was 4.61 µM; in test [6] it was 3.64 µM. Also, the TGI in test [7] was determined as 5.4 µM; in test [8], 1.54 µM; in test [9] it was 2.09 µM; in test [10] it was 13.7 µM.
Turning to `C[C@@H]1C[C@@H](O)[C@]2(O)O[C@@H]3C[C@@]4(C=O)[C@@H](CC[C@@H]5[C@@H]4CC[C@]4(C)[C@@H](C6=CC(=O)OC6)CC[C@]54O)C[C@H]3O[C@@H]2O1`, the GI50 in [1] is 0.0146 µM; in test [3], 0.005 µM; in test [4] it was 0.0273 µM; in test [5] it was 0.06 µM; in [6] it was 0.135 µM; in test [7] it was 0.0534 µM and 0.0141 µM. Moreover, the GI50 was 0.0472 µM in [8]; 0.0256 µM and 0.0163 µM in test [9]; 0.0247 µM in [10]. For the same compound, the TGI is 0.0117 µM and 0.0413 µM in test [1]; 0.179 µM in [2]; 0.0391 µM and 0.0223 µM in test [3]; 0.582 µM and 0.134 µM in test [4]; 0.0605 µM and 0.25 µM in [5]; 0.234 µM and 0.683 µM in test [6]. For the same compound, the TGI is 0.0734 µM and 0.198 µM and 0.0745 µM in test [7]; 0.0624 µM and 0.165 µM and 0.0884 µM in test [8]; 0.032 µM and 0.0802 µM and 0.0994 µM in test [9]; 0.0303 µM and 0.055 µM and 0.0584 µM in [10].
On to `Cc1ccc(-[n+]2c3cc(N)c(C)cc3nc3cc(C)c(Nc4ccccc4)cc32)cc1`, for which the GI50 in test [1] is 0.0441 µM; in test [2], 0.128 µM; in [3], 0.223 µM; in [4], 0.566 µM; in test [6], 0.15 µM; in test [7], 0.0377 µM. In addition, the GI50 in [10] is 0.147 µM. Moreover, the TGI in [1] was 1.19 µM; in test [2], 0.717 µM; in test [3], above 100 µM; in test [4], 1.82 µM; in [6] it was 0.556 µM; in test [7], 0.345 µM. In test [10], this compound yielded a TGI of 0.289 µM.
Regarding `CCOC(=O)c1c2c(n3ccc(NC(=O)CCN4CCCC4)cc13)C(=O)c1ncccc1C2=O`, the GI50 in test [1] is 1.03 µM; in test [2], 1.54 µM; in [3], 1.88 µM; in test [6], 11.8 µM; in [7], 1.57 µM; in [9], 15.8 µM. Also, the GI50 in test [10] was 15.1 µM. The TGI came to 2.67 µM in [1]; 3.64 µM in test [2]; 5.41 µM in test [3]; 27.5 µM in test [6]; 3.46 µM in [7]; 41.4 µM in test [9]. The compound further gave a TGI in test [10] of 35 µM.
As for `Cc1ncc(CN=Cc2ccc(Cl)cc2)c(N)n1`, the TGI in [1], in [2], in test [3], in test [5], in test [6] and in test [7] was above 100 µM throughout. The TGI in test [8], in test [9] and in test [10] was above 100 µM in each case.
On to `O=C(Oc1ccc(Cl)cc1Cl)c1ccccc1Nc1ccnc(C(F)(F)F)c1`, for which the GI50 in test [1] is 11.1 µM; in [2] it was 6.7 µM; in [3], 3.54 µM; in [4] it was 3.25 µM; in test [5] it was 2.26 µM; in test [6], 11.6 µM. Besides, the GI50 in test [10] was 2.85 µM. Further, the TGI in [1] is 33.1 µM; in test [2], 25.4 µM; in [3], above 100 µM; in [4], 5.49 µM; in [5] it was 5.31 µM; in test [6], 43.4 µM. Besides, the TGI in test [10] was found to be 10.5 µM.
`Cc1c2c(nn1-c1ccc(S(=O)(=O)NC(=S)Nc3ccccc3)cc1)-c1ccccc1CC2`: the GI50 is above 50 µM in [1]; above 50 µM in test [2]; 38.8 µM in test [5]; above 50 µM in test [6]; above 50 µM in test [7]; 25.8 µM in test [8]. Moreover, the GI50 in test [9] was 1.15 µM; in test [10] it was above 50 µM. Also, the TGI in [1], in test [2], in test [5], in test [6], in [7] and in [8] was above 50 µM each time. Besides, the TGI in test [9] and in test [10] was above 50 µM each time.
Take `COc1ccc2cc(C(=O)/C=C/c3cc(OC)c(OC)c(OC)c3)ccc2c1`: the GI50 in test [1] was 2.56 µM; in [2] it was 5.7 µM; in [3], above 50 µM; in test [5], 1.77 µM; in test [6], 21.9 µM; in test [7] it was 2.72 µM. Besides, the GI50 in [8] is 2.55 µM; in test [9], 11 µM; in test [10], 0.0737 µM. Besides, the TGI in [1] is 44.5 µM; in test [2] it was 19.5 µM; in test [3] it was above 50 µM; in [5] it was above 50 µM; in [6], above 50 µM; in [7], 19.7 µM. The TGI turned out to be 11 µM in test [8], 25.8 µM in test [9] and 1.01 µM in [10].
Consider `ClCc1cccc(Cn2cnc3c(Cl)ncnc32)c1`, for which the GI50 is 19.4 µM in test [1]; 15.3 µM in [2]; 1.91 µM in [3]; 0.407 µM in [4]; 2.17 µM in test [5]; 2.46 µM in [6]. Besides, the GI50 in test [7] was 3.25 µM; in test [8], 1.96 µM; in test [10], 2.3 µM. The TGI in test [1] stood at 39.4 µM; in test [2] it was 30.2 µM; in test [3] it was 3.85 µM; in test [4], 1.75 µM; in [5], 4.64 µM; in test [6], 6.22 µM. Besides, the TGI in [7] is above 100 µM; in test [8] it was 5.02 µM; in test [10], 6.38 µM.
On to `CN(C)c1cccc2c(S(=O)(=O)N[C@H]3CC[C@H]4[C@@H]5CCc6cc(O)ccc6[C@H]5CC[C@]34C)cccc12`, for which the GI50 in [1] was 2.51 µM; in [2] it was 2.55 µM; in [3], 3.25 µM; in test [4] it was 3.17 µM; in [5], 0.951 µM; in test [6] it was 1.67 µM. Further, the results for the GI50 in test [7], in test [9] and in test [10] were 2.5 µM, 1.9 µM and 1.53 µM, respectively. The TGI is 10.7 µM in test [1]; 6.5 µM in test [2]; above 100 µM in test [3]; 14.6 µM in test [4]; 8.38 µM in [5]; 7.64 µM in test [6]. Moreover, the TGI was 5.45 µM in test [7], 5.61 µM in test [9] and 2.9 µM in [10].
Regarding `COc1ccc(Cl)cc1Nc1nc(C(F)(F)F)ccc1C(=O)N/N=C/c1c(Cl)cccc1Cl`, the GI50 in test [1] is above 100 µM; in [2], 1.2 µM; in test [3], 1.04 µM; in test [4] it was 5.37 µM; in [5] it was 3.26 µM; in [6] it was 3.46 µM. Further, the GI50 in test [7] is above 100 µM; in test [8] it was 5.14 µM; in [9], 3.46 µM. For the same compound, the TGI in test [1] was above 100 µM; in test [2], 6.84 µM; in test [3], 6.17 µM; in [4], above 100 µM; in test [5] it was above 100 µM; in test [6], 38.4 µM. Besides, the TGI was above 100 µM in [7], above 100 µM in test [8] and 54.7 µM in [9].
`CC(=O)n1c(COS(C)(=O)=O)nc2ccccc21`: the TGI in test [1], in [2], in [4], in test [5], in [6] and in test [7] was above 100 µM in each case. Further, the TGI in [8], in test [9] and in [10] was above 100 µM each time.
`COc1cc2c3c(n(C)c(=O)c2cc1OC)-c1cc2c(cc1/C3=C\CCCCCN)OCO2`: the GI50 is 6.53 µM in [1]; 6.05 µM in [2]; 0.0121 µM in test [3]; 1.28 µM in [4]; 1.58 µM in test [5]; 4.03 µM in [6]. For the same compound, the GI50 is 1.17 µM in [7], 8.38 µM in test [9] and 3.12 µM in test [10]. Further, the TGI was above 54.5 µM in test [1]; 21.3 µM in [2]; 0.0641 µM in test [3]; 39.5 µM in test [4]; 12.7 µM in test [5]; 29 µM in test [6]. The values for the TGI in test [7], in test [9] and in [10] were above 100 µM, 37.8 µM and 38.2 µM, respectively.
For `COc1cc(-c2nn(-c3ccc(NC(=O)c4ccc(Cl)c(Cl)c4)cc3)cc2-c2ccncc2)ccc1Cl`, the GI50 in test [1] was above 100 µM; in test [2], above 100 µM; in test [3], 4.56 µM; in test [4] it was 31.8 µM; in test [5], 2.68 µM; in test [6] it was above 100 µM. Besides, the GI50 in [7] is 2.9 µM; in [8], 2.76 µM. Further, the TGI in [1], in test [2], in test [3], in [4], in test [5] and in [6] was above 100 µM throughout. The TGI in [7] and in test [8] was above 100 µM in each case.
Take `COc1ccc(N=C2CSc3nnc(-c4cc(F)c(Cl)cc4Cl)n3N2)cc1`: the GI50 was 1.5 µM in test [1]; 1.77 µM in test [2]; 0.674 µM in test [3]; 1.03 µM in test [5]; 2.83 µM in [6]; 0.395 µM in [7]. Besides, the GI50 is 0.897 µM in [8], 0.529 µM in test [9] and 1.28 µM in [10]. Further, the TGI is 4.42 µM in test [1]; 24.4 µM in test [2]; above 100 µM in test [3]; 17.2 µM in test [5]; 19.1 µM in [6]; 2.11 µM in [7]. The TGI in [8] was determined as 11.1 µM; in test [9] it was 3.77 µM; in test [10], 11.1 µM.
For `O=C(Nc1ccc(N2CCNCC2)cc1)c1[nH]ncc1Nc1ncnc2sc3c(c12)CCC3`, the GI50 in [1] was 0.136 µM; in [2] it was 1.13 µM; in test [3] it was 0.222 µM; in test [4], 0.62 µM; in test [5], 0.224 µM; in [6] it was 0.0302 µM. The GI50 is 0.199 µM in test [8], 0.121 µM in [9] and 0.381 µM in test [10]. Also, the TGI in [1] stood at 0.696 µM; in [2], 2.4 µM; in test [3], 1.13 µM; in test [4], 2.19 µM; in test [5], 1.29 µM; in test [6] it was 1.91 µM. In addition, the TGI was found to be 1.8 µM in test [8], 1.77 µM in test [9] and 1.79 µM in test [10].
Turning to `N#Cc1c(Sc2ccccc2N)cccc1Sc1ccccc1N`, the GI50 in [1] is 56.9 µM; in [2], 76.9 µM; in test [3] it was 20.9 µM; in test [4] it was 67.7 µM; in test [5], 55.6 µM; in test [6] it was 31 µM. Besides, the GI50 in [7] is 63.4 µM; in test [9], 25.3 µM; in test [10], 34.7 µM.
